Data reported in BindingDB's records for doi:10.7270/Q2QR4VH9 (University of Pittsburgh, 2006).

Molecular target: T1, Dual specificity protein phosphatase 1 (Homo sapiens, UniProt P28562)
T1 sequence (P28562 whole entry): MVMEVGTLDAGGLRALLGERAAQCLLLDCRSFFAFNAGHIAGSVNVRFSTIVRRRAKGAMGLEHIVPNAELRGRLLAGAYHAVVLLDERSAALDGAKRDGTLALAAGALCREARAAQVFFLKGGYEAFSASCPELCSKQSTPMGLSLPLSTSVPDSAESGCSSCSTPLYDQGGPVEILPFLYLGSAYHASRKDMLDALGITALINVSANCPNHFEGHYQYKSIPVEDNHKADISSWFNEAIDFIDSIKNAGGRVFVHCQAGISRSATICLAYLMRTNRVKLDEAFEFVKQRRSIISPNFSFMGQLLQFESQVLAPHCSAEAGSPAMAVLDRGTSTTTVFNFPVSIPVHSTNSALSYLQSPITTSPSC
Test: MKP-1 phosphatase inhibitors, repeat potency, dose response, biochemical, reproducibility testing, probe assessment (AID 563)

How did the IC50 turn out when `O=C1C(=C2C(=O)c3ccccc3C2=O)Nc2ccccc21` [MLS000071738] was run?
Its IC50 is > 50 µM.

How did the IC50 turn out when `FC(F)(F)c1ccc(N2CCOCC2)c(Nc2nc3ccccc3n3cnnc23)c1` [MLS000093276] was run?
Its IC50 is > 50 µM.

How did the IC50 turn out when `CCOc1ccc(-c2cc3nc(C4CCN(C(=O)OC(C)(C)C)CC4)c(C(=O)O)cn3n2)cc1` [2-(4-ethoxyphenyl)-5-[1-[(2-methylpropan-2-yl)oxy-oxomethyl]-4-piperidinyl]-6-pyrazolo[1,5-a]pyrimidinecarboxylic acid] was run?
The IC50 was 30.5 µM.

`Nc1c(N2CCCC2)cc(Cl)c2nonc12` [(7-chloro-5-pyrrolidino-benzofurazan-4-yl)amine] was tested. Which IC50 did it give?
The IC50 was > 50 µM.

With `Cc1cc(NC(=O)c2ccc(S(=O)(=O)N3CCCC3)cc2)nc2c1c(=O)oc1ccccc12` [MLS000091355] as the compound, how does the IC50 read?
Its IC50 is 24.9 µM.

How did the IC50 turn out when `CCOc1ccc2noc3c2c1C(=O)c1ccccc1-3` [MLS000106837] was run?
Its IC50 is > 50 µM.

Which IC50 does the source give for `[O-]/[N+](=C\c1ccc(OC(F)F)cc1)c1ccccc1` [1-[4-(difluoromethoxy)phenyl]-N-phenylmethanimine oxide] here?
Its IC50 is > 50 µM.

How did the IC50 turn out when `COC(=O)c1ccccc1NC(=O)CN1C(=O)C2CCCN2c2ncc(Cl)cc21` (stereo not given) [MLS000094302] was run?
The IC50 was 46.2 µM.

With `CC(C)(C)N1C(=O)Cc2c1nc(N)c1c(N)nc(N3CCCCC3CO)c(C#N)c21` (stereo not given) [5,6-bis(azanyl)-3-tert-butyl-8-[2-(hydroxymethyl)piperidin-1-yl]-2-oxidanylidene-1H-pyrrolo[2,3-c][2,7]naphthyridine-9-carbonitrile] as the compound, how does the IC50 read?
Its IC50 is > 50 µM.

How did the IC50 turn out when `COc1ccc(Cn2c(C)nc3c(c2=O)c2nc4ccccc4nc2n3Cc2ccco2)cc1` [MLS000079944] was run?
The IC50 was 21.6 µM.

How did the IC50 turn out when `CC1=C(/C=C/C(C)=C/C=C/C(C)=C/C(=O)O)C(C)(C)CCC1` [ALL-TRANS-RETINOIC ACID] was run?
The IC50 was 42.9 µM.

With `COc1cc(/C=C(/C#N)c2ccc(F)cc2)ccc1OCc1ccc(C(=O)O)o1` [5-({4-[2-cyano-2-(4-fluorophenyl)vinyl]-2-methoxyphenoxy}methyl)-2-furoic acid] as the compound, how does the IC50 read?
The IC50 was > 50 µM.

With `O=C(Nc1ccccc1)c1ccc2nc(-c3ccco3)c(-c3ccco3)nc2c1` [2,3-di-2-furyl-N-phenyl-6-quinoxalinecarboxamide] as the compound, how does the IC50 read?
The IC50 was 35.7 µM.

For `COc1ccc2noc3c2c1C(=O)c1ccccc1-3` [MLS000106874], which IC50 is on record?
The IC50 was 46.1 µM.

How did the IC50 turn out when `Cn1ncnc2c(=O)n(C)c(=O)nc1-2` was run?
Its IC50 is 0.743 µM.

How did the IC50 turn out when `CCc1ccc(NC(=O)CSc2nc3ccccc3c(=O)n2CCN2CCOCC2)cc1` [MLS000095236] was run?
The IC50 was > 50 µM.

With `CCn1nc(-c2ccccc2)nc2c(=O)n(C)c(=O)nc1-2` [1-Ethyl-6-methyl-3-phenyl-1H-pyrimido[5,4-e][1,2,4]triazine-5,7-dione] as the compound, how does the IC50 read?
The IC50 was 1.19 µM.

With `CCCCn1c(SCC(=O)c2ccc(OC)cc2OC)nc2cc(S(N)(=O)=O)ccc21` [1-butyl-2-[2-(2,4-dimethoxyphenyl)-2-oxidanylidene-ethyl]sulfanyl-benzimidazole-5-sulfonamide] as the compound, how does the IC50 read?
The IC50 was 45.6 µM.

With `COCCCn1c(N)c(C(=O)NCCC(C)C)c2nc3ccccc3nc21` [MLS000041744] as the compound, how does the IC50 read?
Its IC50 is > 50 µM.

Which IC50 does the source give for `[O-]/[N+](=C/c1ccc(F)cc1)c1ccccc1` [(E)-(4-fluorobenzylidene)(phenyl)azane oxide] here?
Its IC50 is > 50 µM.

For `COc1ccc(Br)cc1C=c1sc2nc(-c3ccco3)nn2c1=O` [5-[(5-bromanyl-2-methoxy-phenyl)methylidene]-2-(furan-2-yl)-[1,3]thiazolo[3,2-b][1,2,4]triazol-6-one], which IC50 is on record?
Its IC50 is 12.8 µM.

With `CC(C)Cn1c(N)c(C(=O)COC(=O)c2cc(-c3ccco3)nc3ccccc23)c(=O)n(C)c1=O` [2-(2-furanyl)-4-quinolinecarboxylic acid [2-[4-amino-1-methyl-3-(2-methylpropyl)-2,6-dioxo-5-pyrimidinyl]-2-oxoethyl] ester] as the compound, how does the IC50 read?
Its IC50 is 24.2 µM.

How did the IC50 turn out when `CCCCn1c(NC(=O)c2ccccc2)c(C#N)c2nc3ccccc3nc21` [SMR000060333] was run?
Its IC50 is 30 µM.

`O=C(c1cccs1)c1no[n+]([O-])c1C(=O)c1cccs1` [(5-oxidanidyl-4-thiophen-2-ylcarbonyl-1,2,5-oxadiazol-5-ium-3-yl)-thiophen-2-yl-methanone] was tested. Which IC50 did it give?
Its IC50 is 6.39 µM.

`N#Cc1c(NC(=O)c2ccc(Br)o2)n(-c2ccccc2)c2nc3ccccc3nc12` [5-bromanyl-N-(3-cyano-1-phenyl-pyrrolo[3,2-b]quinoxalin-2-yl)furan-2-carboxamide] was tested. Which IC50 did it give?
The IC50 was 24.4 µM.

With `Cc1c(N=c2c(=O)c3ccccc3c2=O)c(=O)n(-c2ccccc2)n1C` [MLS000105950] as the compound, how does the IC50 read?
Its IC50 is 26.2 µM.

How did the IC50 turn out when `O=C1Nc2ccccc2SC(c2ccccc2)C1O` (stereo not given) [3-hydroxy-2-phenyl-2,3-dihydro-1,5-benzothiazepin-4(5H)-one] was run?
Its IC50 is 33.2 µM.

For `COc1ccc(-n2c(NC(=O)c3ccco3)c(C#N)c3nc4ccccc4nc32)cc1` [MLS000079925], which IC50 is on record?
Its IC50 is 34.1 µM.

With `Cc1nc2cc(-c3cccc(F)c3)nn2c(C)c1CCC(=O)N1CCC2(CC1)OCCO2` [1-(1,4-dioxa-8-azaspiro[4.5]decan-8-yl)-3-[2-(3-fluorophenyl)-5,7-dimethyl-6-pyrazolo[1,5-a]pyrimidinyl]-1-propanone] as the compound, how does the IC50 read?
The IC50 was > 50 µM.

For `Nc1nc2c(s1)CCc1c-2cnn1-c1ccccc1` [MLS000085948], which IC50 is on record?
Its IC50 is > 50 µM.

`O=C(OC1CCCCC1)c1ccc2c(c1)C1C=CCC1C(C(=O)O)N2` (stereo not given) [SMR000019385] was tested. Which IC50 did it give?
The IC50 was 14.5 µM.

Which IC50 does the source give for `O=C(Nc1ccc2nc(-c3ccco3)c(-c3ccco3)nc2c1)N1CCCCCC1` here?
The IC50 was 26 µM.

With `O=C(NC1(O)C(=O)c2ccccc2C1=O)c1ccccc1` [N-(2-hydroxy-1,3-dioxo-2-indenyl)benzamide] as the compound, how does the IC50 read?
Its IC50 is 48.2 µM.

With `CCCCNC(=O)c1c(N)n(CCCOC)c2nc3ccccc3nc12` [2-amino-N-butyl-1-(3-methoxypropyl)-3-pyrrolo[3,2-b]quinoxalinecarboxamide] as the compound, how does the IC50 read?
Its IC50 is 47.1 µM.

For `O=C1C=Cc2ccccc2C1=O` [1,2-dihydronaphthalene-1,2-dione], which IC50 is on record?
The IC50 was 36.4 µM.

Which IC50 does the source give for `COc1ccc(-c2cc3nc(C4CCN(C(=O)OC(C)(C)C)CC4)c(C(=O)O)cn3n2)cc1` [2-(4-methoxyphenyl)-5-[1-[(2-methylpropan-2-yl)oxy-oxomethyl]-4-piperidinyl]-6-pyrazolo[1,5-a]pyrimidinecarboxylic acid] here?
Its IC50 is 33.9 µM.

`CCn1nc(-c2cccs2)nc2c(=O)n(C)c(=O)nc1-2` [1-ethyl-6-methyl-3-thiophen-2-yl-pyrimido[5,4-e][1,2,4]triazine-5,7-dione] was tested. Which IC50 did it give?
The IC50 was 1.24 µM.

For `[O-]/[N+](=C\c1ccncc1)c1ccccc1`, which IC50 is on record?
Its IC50 is > 50 µM.

`CCOc1cc(/C=C(/C#N)c2ccc(F)cc2)ccc1OCc1ccc(C(=O)O)o1` [5-[[4-[(E)-2-cyano-2-(4-fluorophenyl)ethenyl]-2-ethoxyphenoxy]methyl]furan-2-carboxylic acid] was tested. Which IC50 did it give?
The IC50 was 36.7 µM.

How did the IC50 turn out when `N#Cc1c(N)sc(=S)c2c1CCN(Cc1ccccc1)C2` [3-Amino-7-benzyl-1-thioxo-5,6,7,8-tetrahydro-1H-thiopyrano[3,4-c]pyridine-4-carbonitrile] was run?
The IC50 was 7.34 µM.

For `Cc1cccc(NC(=O)c2cc(NC(=O)C3CCCCC3C(=O)O)ccc2N2CCCCC2)c1` (stereo not given) [2-({[3-{[(3-methylphenyl)amino]carbonyl}-4-(1-piperidinyl)phenyl]amino}carbonyl)cyclohexanecarboxylic acid], which IC50 is on record?
The IC50 was > 50 µM.

How did the IC50 turn out when `CCCSc1nnc(NC(=O)c2sc3nc(-c4cccs4)ccc3c2N)s1` [3-amino-N-(5-propylsulfanyl-1,3,4-thiadiazol-2-yl)-6-thiophen-2-ylthieno[2,3-b]pyridine-2-carboxamide] was run?
The IC50 was 21.8 µM.

How did the IC50 turn out when `CCCCCC#CCC#CCC#CCC#CCCCC(=O)O` was run?
Its IC50 is 12.1 µM.

With `Cc1cc(C)n2c(SCC(=O)N3CCN(S(=O)(=O)c4ccc(Cl)cc4)CC3)nnc2n1` [1-[4-(4-chlorophenyl)sulfonyl-1-piperazinyl]-2-[(5,7-dimethyl-[1,2,4]triazolo[4,3-a]pyrimidin-3-yl)thio]ethanone] as the compound, how does the IC50 read?
Its IC50 is 48.8 µM.

Which IC50 does the source give for `O=C1c2ccccc2-c2onc3ccc(NCCCn4ccnc4)c1c23` [SMR000044769] here?
Its IC50 is 27.7 µM.

For `O=C1C=C(NCc2ccc(Cl)c(Cl)c2)CC1` [3-[(3,4-dichlorobenzyl)amino]cyclopent-2-en-1-one], which IC50 is on record?
Its IC50 is > 50 µM.

How did the IC50 turn out when `N#Cc1c(N2CCCC2)nc(N)c2c(N)nc(N3CCCC3)cc12` [SMR000061605] was run?
Its IC50 is 18.8 µM.

`Cc1ccc(/C=C/C2=Cc3c(sc(NC(=O)CSc4nnc(N)[nH]4)c3C#N)C(C)(C)C2)o1` [2-[(5-azanyl-1H-1,2,4-triazol-3-yl)sulfanyl]-N-[3-cyano-7,7-dimethyl-5-[(E)-2-(5-methylfuran-2-yl)ethenyl]-6H-1-benzothiophen-2-yl]ethanamide] was tested. Which IC50 did it give?
The IC50 was 17.8 µM.

`CC(=O)[C@@H]1[C@@H]2C(=O)N(c3ccc(F)c(Cl)c3)C(=O)[C@@H]2C2c3ccccc3C=CN21` (stereo not given in full) [MLS000040594] was tested. Which IC50 did it give?
The IC50 was > 50 µM.

`CCn1c(SCC(=O)Nc2ccc3c(c2)c2ccccc2n3CC)nnc1-c1ccco1` [MLS000050867] was tested. Which IC50 did it give?
Its IC50 is 20.3 µM.
